One data set has as its system rat hair loss model. The data set can be described thus: Rat hair loss (androgenic alopecia) model: hair length. Type of data set: in vivo, Wistar rats. To be noted: for 15-day hair length / 30-day hair length / 45-day hair length / 60-day hair length: rat AGA model; for adverse reactions: rat hair loss model, external use and system application, 60 days. An excerpt:
(1) Compound CLY-1, CLY-2, CLY-3, CLY-4, CLY-5, CLY-8, CLY-11, CLY-19, CLY-36, CLY-39 tincture preparation method: 75% ethanol was mixed with appropriate amount of above compounds to prepare a tincture of different concentrations.
(2) Positive treatment drug: 5% minoxidil tincture (trade name: Mandi, Zhejiang Wanma Pharmaceutical Co., Ltd.).
Wistar rats were, according to weights, randomly divided into the negative control group (75% ethanol for external use), model group (75% ethanol for external use), positive control group (external 5% minoxidil tincture), CLY-1 external treatment group (external 5% CLY-1 tincture), CLY-2 external treatment group (external 5% CLY-2 tincture), CLY-3 external treatment group (external 5% CLY-3 tincture), CLY-4 external treatment group (external 5% CLY-4 tincture), and CLY-5 external treatment group (external 5% CLY-5 tincture) according to their body weight CLY-8 external treatment group (external 5% CLY-8 tincture), CLY-11 external treatment group (external 5% CLY-11 tincture), CLY-19 external treatment group (external 5% CLY-19 tincture), CLY-36 external treatment group (external 5% CLY-36 tincture), CLY-39 external treatment group (external 5% CLY-39 tincture), CLY-1 intravenous injection group (2 mg/kg·d), CLY-3 intravenous injection group (2 mg/kg·d), CLY-4 intravenous injection group (2 mg/kg·d) CLY-5 intravenous injection group (2 mg/kg·d), CLY-8 intravenous injection group (2 mg/kg·d), CLY-11 intravenous injection group (2 mg/kg·d), CLY-19 intravenous injection group (2 mg/kg·d), CLY-36 intravenous injection group (2 mg/kg·d), and CLY-39 intravenous injection group (2 mg/kg·d), with 10 rats in each group. Before the experiment, an area of 4 cm×5 cm was selected on each rat on the back of the neck to remove hair as the observation area. In addition to the negative control group, rats were subcutaneously injected with testosterone propionate injection [5 ml/(kg·d)] once a day for 60 days to establish the androgenic alopecia (AGA) model. […] At the same time, the drug was applied to the observation area on the back of the rats in the corresponding drug group at the rate of 2 mL/(one time), twice a day, at an interval of 8 hours; Intravenous administration once a day. The negative control group and the model control group were smeared with 75% ethanol solution, 2 mL/(one rat per time), twice a day, for 60 days.
Took 10 hairs from the observation area on the back of each rat every 15 days after administration, and measured the hair length with a vernier caliper. After 60 days of administration, the skin of the experimental observation area was taken for routine tissue dehydration, paraffin embedding, HE staining, and light microscopy to observe the histopathological changes of the rat skin hair follicles and sebaceous glands. Semi-quantitative analysis was performed for each group. The grading criteria are as follows: the normal structure of dermal tissue cells, subcutaneous hair follicles, and sebaceous glands is marked as […]: no hyperplasia of dermal tissue is found, the lesions of hair follicles and sebaceous glands are limited, and no inflammation is found under the skin is marked as “+”: no obvious hyperplasia of dermal tissue is found, and the follicles are obviously cystic. No obvious hyperplasia of sebaceous glands is found, and no inflammation is found under the skin is marked as “+”: the dermal tissue has segmental hyperplasia, which is not obvious, A small number of hair follicles have cystic changes, and the sebaceous glands have mild hyperplasia and hypertrophy. There is no obvious inflammation under the skin, which is marked as “++”: the dermal tissue cells of the skin have different degrees of segmental hyperplasia, and some hair follicles have cystic changes, showing uneven size of hair follicles, and no cells around. The sebaceous glands have hyperplasia, and the nuclei in the proliferative glands are few. […]

For a further data set, the system named is rabbit ear acne model. The data set can be described thus: Rabbit ear acne model: epidermal thickness, hair follicle area, sebaceous gland diameter. Type of data set: in vivo, New Zealand rabbits. Particulars: rabbit right ear. An excerpt: New Zealand rabbits were, according to weights, randomly divided into the model control group (applied cream matrix), positive treatment group (applied Differin on the skin), CLY-1 external treatment group (0.25% CLY-1 cream on the skin), CLY-2 external treatment group (0.25% CLY-2 cream on the skin), CLY-3 external treatment group (0.25% CLY-3 cream on the skin), CLY-4 external treatment group (0.25% CLY-4 cream on the skin) CLY-8 external treatment group (0.25% CLY-8 cream on the skin), CLY-9 external treatment group (0.25% CLY-9 cream on the skin), CLY-11 external treatment group (0.25% CLY-11 cream on the skin), CLY-19 external treatment group (0.25% CLY-19 cream on the skin), CLY-36 external treatment group (0.25% CLY-36 cream on the skin); CLY-1 intravenous injection group (1 mg/kg·d), CLY-2 intravenous injection group (1 mg/kg·d), CLY-3 intravenous injection group (1 mg/kg·d), CLY-4 intravenous injection group (1 mg/kg·d), CLY-8 intravenous injection group (1 mg/kg·d), CLY-9 intravenous injection group (1 mg/kg·d), CLY-11 intravenous injection group (1 mg/kg·d), CLY-19 intravenous injection group (1 mg/kg·d), and CLY-36 intravenous injection group (1 mg/kg·d), with 10 in each group. Took the inner side of the rabbit's right ear for depilation treatment as the observation area, and the inner side of the left ear of all rabbits as their own negative control, and applied 95% alcohol. The inner side of the right ear of the model group and the treatment group were both coated with 2% coal tar (Alfa Aesar China, which used 95% alcohol to prepare 2% coal tar solution), and evenly applied the sterile cotton swab to the opening of the ear duct on the inner side of the rabbit's ear within the range of about 2 cm×2 cm, once a day, 0.5 mL each time, and wiped the previous application site with warm water for 14 consecutive days to establish the acne micro-pigmentation model. Visually observed the changes of local skin, including ear thickness, hardness, roughness, and whether there was a black angle plug at the hair follicle mouth. 18 hours after the last application, the sample was sacrificed and skin was taken. The skin tissue was taken from the application site by using a 5 mm punch, fixed with 10% formaldehyde, embedded in paraffin, and stained with HE. The histopathological observation and analysis were carried out.
The histopathological changes were observed under the microscope, and the thickness of five different epidermises on a slice was measured with the Biomias99 image analysis system, and the average value was calculated; Detected the area of the two hair follicles and the diameter of the four sebaceous glands with the same position and the most complete structure in the four sections, calculated their average values, and then subtracted the data of the left and right external auditory canal of the rabbits in each group to obtain the difference in the thickness of the left and right ear epidermis, the difference in the area of the hair follicles and the difference in the diameter of the sebaceous glands.
SPSS16 software was used for statistical analysis. The paired t-test was used for the left and right self-contrast, and the t-test was used for the comparison between the groups, P<0.05 was statistically significant.

Setting [1] is: external 5% tincture twice a day.
Setting [2] is: intravenous injection 2 mg/kg·d.
Setting [3] is: external use (0.25% CLY cream; positive: Differin).
Where [4] appears, read: intravenous injection 1 mg/kg·d.

Each structure is given as a SMILES string. Marks after values point to notes of the source that are not given here.

Turning to `O=C(c1ccc(-n2nnc3cccnc32)cc1)N(c1ncccc1Cl)[C@@H]1CCNC1` [CLY-8, (R)-4-(3H-[1,2,3]triazolo[4,5-b]pyridin-3-yl)-N-(3-chloropyridin-2-yl)-N-(pyrrolidin-3-yl)benzamide], in the data set on rat hair loss model (setting [1]), the 15-day hair length is recorded as 9.3* mm, the 30-day hair length was 10.3* mm, the 45-day hair length was 15.7* mm and the 60-day hair length is listed as 19.2* mm. Moreover, in the data set with rat hair loss model (setting [2]), the 15-day hair length is 7.3* mm, the 30-day hair length is given as 9.5* mm, the 45-day hair length is reported as 13.8* mm and the 60-day hair length was 17.8* mm. In the data set with rat hair loss model, the adverse reactions result is “no obvious adverse reactions”. Also, in the data set with rabbit ear acne model (setting [3]), the epidermal thickness is reported as 0.2237 ± 0.0168 mm, the hair follicle area is listed as 0.2115 ± 0.0832* mm^2 and the sebaceous gland diameter is recorded as 0.0663 ± 0.0307 mm. In the data set with rabbit ear acne model (setting [4]), the epidermal thickness was determined as 0.1843 ± 0.0156 mm, the hair follicle area is 0.1845 ± 0.0653* mm^2 and the sebaceous gland diameter is given as 0.0572 ± 0.0289 mm.
Regarding `NC1CCCC(N(C(=O)c2ccc(-n3nnc4cccnc43)cc2)c2ncccc2Cl)C1` (stereo not drawn) [CLY-11], in the data set on rat hair loss model (setting [1]), the 15-day hair length is given as 8.2* mm, the 30-day hair length is listed as 9.1* mm, the 45-day hair length was 13.89* mm and the 60-day hair length is 17.4* mm. In the data set on rat hair loss model (setting [2]), the 15-day hair length is given as 8.6* mm, the 30-day hair length is given as 9.3* mm, the 45-day hair length is recorded as 14.7* mm and the 60-day hair length was 17.6* mm. Further, the adverse reactions entry with rat hair loss model is reported as “no obvious adverse reactions”. In the data set with rabbit ear acne model (setting [3]), the epidermal thickness is recorded as 0.2372 ± 0.0176 mm, the hair follicle area was 0.2745 ± 0.0946* mm^2 and the sebaceous gland diameter came to 0.0786 ± 0.0392 mm. In the data set on rabbit ear acne model (setting [4]), the epidermal thickness is listed as 0.2295 ± 0.0173 mm, the hair follicle area is listed as 0.2246 ± 0.0856* mm^2 and the sebaceous gland diameter was determined as 0.0552 ± 0.0325 mm.
Regarding `O=C(c1ccc(-c2ccccc2-c2nnn[nH]2)cc1)N(c1ncccc1Cl)[C@@H]1CCCNC1` [CLY-19], in the data set on rat hair loss model (setting [1]), the 15-day hair length is on record as 8.5* mm, the 30-day hair length is listed as 9.4* mm, the 45-day hair length is listed as 14.02* mm and the 60-day hair length is recorded as 17.6* mm. For the same compound, in the data set with rat hair loss model (setting [2]), the 15-day hair length is 8.8* mm, the 30-day hair length is listed as 9.7* mm, the 45-day hair length is recorded as 14.9* mm and the 60-day hair length was 17.8* mm. Also, the adverse reactions result with rat hair loss model is recorded as “no obvious adverse reactions”. For the same compound, in the data set with rabbit ear acne model (setting [3]), the epidermal thickness is 0.2365 ± 0.0181 mm, the hair follicle area is given as 0.2766 ± 0.0953* mm^2 and the sebaceous gland diameter is 0.0795 ± 0.0398 mm. Besides, in the data set with rabbit ear acne model (setting [4]), the epidermal thickness came to 0.2276 ± 0.0165 mm, the hair follicle area was 0.2235 ± 0.0843* mm^2 and the sebaceous gland diameter worked out at 0.0523 ± 0.0316 mm.
For the compound `O=C(c1ccc(-c2ccccc2Cl)cc1)N(c1ncccc1Cl)[C@@H]1CCCNC1` [CLY-36], in the data set with rat hair loss model (setting [1]), the 15-day hair length is listed as 8.1* mm, the 30-day hair length is 8.7* mm, the 45-day hair length is 13.81* mm and the 60-day hair length is 17.1* mm. In the data set with rat hair loss model (setting [2]), the 15-day hair length was 8.6* mm, the 30-day hair length is 9.2* mm, the 45-day hair length was 14.2* mm and the 60-day hair length was 17.3* mm. The adverse reactions result in the data set with rat hair loss model was “no obvious adverse reactions”. In the data set on rabbit ear acne model (setting [3]), the epidermal thickness is recorded as 0.2387 ± 0.0186 mm, the hair follicle area is on record as 0.2773 ± 0.0945* mm^2 and the sebaceous gland diameter amounted to 0.0805 ± 0.0406 mm. Moreover, in the data set on rabbit ear acne model (setting [4]), the epidermal thickness stood at 0.2282 ± 0.0171 mm, the hair follicle area is 0.2241 ± 0.0846* mm^2 and the sebaceous gland diameter is 0.0536 ± 0.0319 mm.
Regarding `O=C(c1ccc(-n2nnc3cccnc32)cc1)N(c1ncccc1Cl)C1CCCC(O)C1` (stereo not drawn) [CLY-4], in the data set with rat hair loss model (setting [1]), the 15-day hair length is listed as 7.2* mm, the 30-day hair length is reported as 8.3* mm, the 45-day hair length is listed as 12.26* mm and the 60-day hair length is 16.1* mm. Further, in the data set on rat hair loss model (setting [2]), the 15-day hair length is on record as 7.1* mm, the 30-day hair length is recorded as 8.6* mm, the 45-day hair length was 13.5* mm and the 60-day hair length is recorded as 16.3* mm. Besides, the adverse reactions entry with rat hair loss model is on record as “no obvious adverse reactions”. In the data set on rabbit ear acne model (setting [3]), the epidermal thickness is reported as 0.2436 ± 0.0215 mm, the hair follicle area was 0.3254 ± 0.1126* mm^2 and the sebaceous gland diameter turned out to be 0.0958 ± 0.0456 mm. Further, in the data set with rabbit ear acne model (setting [4]), the epidermal thickness is given as 0.2363 ± 0.0235 mm, the hair follicle area is listed as 0.2465 ± 0.0923* mm^2 and the sebaceous gland diameter is on record as 0.0625 ± 0.0386 mm.

These data come from patent US20240300945A1, “CLY SERIES COMPOUND, PREPARATION METHOD THEREFOR AND USE THEREOF IN PREPARATION OF DRUGS” (NANJING WELLBEST PHARMACEUTICAL CO., LTD, priority 2021, published 2024).
